Tested on: P12-Ichikawa
Test: cell viability relative to DMSO control; higher = less cytotoxic
Details: 48 h
Summary of the method: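 Viability, reported as a per-plate percentage of DMSO wells with cell-free wells as background, came from CellTiter-Glo One luminescence. Reading took place after 48 h at 37°C. Before that, NOMO1 or SEM (500 cells/well) or P12-Ichikawa (1000 cells/well) leukemia cells, adapted for at least four passages in each medium, were seeded in 1536-well plates (5 μl) and pin-dosed with library compounds in DMSO, 47 μM to 0.79 nM over 11 threefold points.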

[1] = HPLM + 10% dialyzed FBS, 0.000781 µM
[2] = HPLM + 10% dialyzed FBS, 0.00234 µM
[3] = HPLM + 10% dialyzed FBS, 0.00702 µM
[4] = HPLM + 10% dialyzed FBS, 0.0211 µM
[5] = HPLM + 10% dialyzed FBS, 0.0632 µM
[6] = HPLM + 10% dialyzed FBS, 0.19 µM
[7] = HPLM + 10% dialyzed FBS, 0.569 µM
[8] = HPLM + 10% dialyzed FBS, 1.71 µM
[9] = HPLM + 10% dialyzed FBS, 5.12 µM
[10] = HPLM + 10% dialyzed FBS, 15.4 µM
[11] = HPLM + 10% dialyzed FBS, 46.1 µM
[12] = RPMI 5 mM glucose + 10% dialyzed FBS, 0.000781 µM
[13] = RPMI 5 mM glucose + 10% dialyzed FBS, 0.00234 µM
[14] = RPMI 5 mM glucose + 10% dialyzed FBS, 0.00702 µM
[15] = RPMI 5 mM glucose + 10% dialyzed FBS, 0.0211 µM
[16] = RPMI 5 mM glucose + 10% dialyzed FBS, 0.0632 µM
[17] = RPMI 5 mM glucose + 10% dialyzed FBS, 0.19 µM
[18] = RPMI 5 mM glucose + 10% dialyzed FBS, 0.569 µM
[19] = RPMI 5 mM glucose + 10% dialyzed FBS, 1.71 µM
[20] = RPMI 5 mM glucose + 10% dialyzed FBS, 5.12 µM
[21] = RPMI 5 mM glucose + 10% dialyzed FBS, 15.4 µM
[22] = RPMI 5 mM glucose + 10% dialyzed FBS, 46.1 µM
[23] = RPMI 5 mM glucose + 10% FBS, 0.000781 µM
[24] = RPMI 5 mM glucose + 10% FBS, 0.00234 µM
[25] = RPMI 5 mM glucose + 10% FBS, 0.00702 µM
[26] = RPMI 5 mM glucose + 10% FBS, 0.0211 µM
[27] = RPMI 5 mM glucose + 10% FBS, 0.0632 µM
[28] = RPMI 5 mM glucose + 10% FBS, 0.19 µM
[29] = RPMI 5 mM glucose + 10% FBS, 0.569 µM
[30] = RPMI 5 mM glucose + 10% FBS, 1.71 µM
[31] = RPMI 5 mM glucose + 10% FBS, 5.12 µM
[32] = RPMI 5 mM glucose + 10% FBS, 15.4 µM
[33] = RPMI 5 mM glucose + 10% FBS, 46.1 µM

SMILES	cell viability [1] [%]	cell viability [2] [%]	cell viability [3] [%]	cell viability [4] [%]	cell viability [5] [%]	cell viability [6] [%]	cell viability [7] [%]	cell viability [8] [%]	cell viability [9] [%]	cell viability [10] [%]	cell viability [11] [%]	cell viability [12] [%]	cell viability [13] [%]	cell viability [14] [%]	cell viability [15] [%]	cell viability [16] [%]	cell viability [17] [%]	cell viability [18] [%]	cell viability [19] [%]	cell viability [20] [%]	cell viability [21] [%]	cell viability [22] [%]	cell viability [23] [%]	cell viability [24] [%]	cell viability [25] [%]	cell viability [26] [%]	cell viability [27] [%]	cell viability [28] [%]	cell viability [29] [%]	cell viability [30] [%]	cell viability [31] [%]	cell viability [32] [%]	cell viability [33] [%]
Cc1cccc(C#Cc2ccccc2)n1	120	128	124	124	125	122	112	121	113	117	105																						
CC1(C)CCC(=C(CN2CCN(CC2)C3=CC=C(C=C3)C(=O)N[S+]([O-])(=O)C4=CC(=C(N[C@H](CCN5CCOCC5)CSC6=CC=CC=C6)C=C4)[S+]([O-])(=O)C(F)(F)F)\C1)/C7=CC=C(Cl)C=C7	116	120	121	122	92.5	40.9	20	6.68	7.29	7.3	4.74	120	124	127	122	109	73.4	39.1	7.42	7.07	6.25	4.69											
[NH2][Pt]([NH2])([Cl])[Cl]	99.2	105	95.1	90.3	102	96	97.6	98.2	101	98.2	105	88.4	94.6	85.2	92	91.1	95.6	92.2	87.6	98.8	88.4	85.2	86.2	92.8	95.6	98	101	101	90.7	94.3	89	90.8	95.5
CC(C)C[C@H](NC(=O)[C@@H](NC(=O)c1cccc(-c2ccccc2)n1)[C@@H](C)O)B(O)O	101	114	112	112	45.1	7.04	6.52	6.5	3.21	1.52	1.32	99.4	109	122	124	53.2	7.76	6.76	6.66	5.34	2.52	1.55	103	118	123	110	17.8	7.41	6.75	6.12	4.81	2.62	1.65
CCOc1ccc(Nc2nc(-c3c(C)nc4ccccn34)cs2)cc1	117	116	116	103	53.8	19.3	26.3	24.1	16.3	14.5	9.9	104	116	110	108	94.2	28.9	29.6	30.3	27.3	28.1	14.8	116	121	129	109	72.8	16.7	19.6	19.6	22.3	17.5	9.84
CCn1c(-c2nonc2N)nc2cncc(CNC3CCNCC3)c21	122	123	123	123	130	129	117	104	88.6	10.1	13.7																						
CC(=O)N1CCN(c2ccc(OC[C@H]3CO[C@](Cn4ccnc4)(c4ccc(Cl)cc4Cl)O3)cc2)CC1	118	120	118	112	108	121	114	105	104	94	63.2	109	107	110	107	113	106	101	101	94	96.7	68.2											
O=C(O)c1ccc(-n2nc(-c3ccccc3O)nc2-c2ccccc2O)cc1	96.8	114	104	107	104	108	108	99.9	82	70	48.9	86.7	103	105	96.2	95.5	102	102	96.7	79.7	55.7	22.2	82.8	94.8	107	99.8	102	104	101	104	73.3	53.3	29.3
CN(C/C=C/C#CC(C)(C)C)Cc1cccc2ccccc12	96.2	103	101	104	105	103	106	90.6	103	105	107	92.3	94.4	89.7	92.3	99.5	90.8	90.9	96.5	91.8	91.3	93.8	90.6	93.1	100	93.8	100	105	101	101	98.9	102	94.5
Cc1cc(Nc2nc(N[C@@H](C)c3ncc(F)cn3)ncc2Cl)n[nH]1	95.1	111	109	114	116	119	126	108	70.6	55	56.9	109	110	119	117	121	119	109	118	90.8	50.6	45.2	113	122	116	126	112	112	118	118	115	98	42.5
CCOC(=O)N1CCN(/[N+]([O-])=N/Oc2ccc([N+](=O)[O-])cc2[N+](=O)[O-])CC1	93.7	94.7	96	97.1	98.2	102	101	97	95.5	96.9	27.1	92	83.9	87.7	88.3	88.4	86.4	90.1	85.9	82.8	82.8	18.8	91.6	96.5	88	90.6	102	99.2	99.8	97.1	84.3	78.7	19.9
CC(C)(C)c1cc(C=C(C#N)C#N)cc(Br)c1O	96.9	116	74.7	114	122	122	123	120	121	116	104	106	114	79.7	116	126	132	117	132	130	113	110	101	110	67.7	117	115	123	124	113	123	121	100
O=C(CO)N1CCC(c2n[nH]c(-c3ccc(Cl)cc3)c2-c2ccncn2)CC1	119	104	113	112	113	109	105	100	97.7	55.7	68.4	122	116	114	116	117	114	113	101	97.7	21.7	55.4	117	112	118	122	114	113	114	110	87.8	24	58.5
COc1cc(O)c2c(c1)C1OC1C[C@H](O)[C@H](O)C(=O)/C=C\C[C@H](C)OC2=O (stereo partly drawn)	99.6	112	114	110	110	120	112	112	112	81.5	11.3	96.5	117	116	118	114	135	124	123	132	85.1	14.3	113	112	118	110	115	114	116	125	117	80.5	13.5
Oc1ccc(C2CCN(c3ccnc4ccccc34)CC2)cc1O	102	118	111	113	112	117	110	106	70.8	67.4	63.4	96.5	113	106	110	107	112	111	97.5	59.2	45.8	40.8	112	110	109	125	122	107	113	110	71.5	55.1	48.5
O=C(Nc1cccc(Nc2ncc(Br)c(NCCc3cnc[nH]3)n2)c1)N1CCCC1												111	104	107	103	99.5	92.6	95.1	20.3	27.2	34.6	9.06	98	103	110	90.7	88.1	79.7	34.5	15.2	18.8	33.5	3.48
CC1(C)OC2CC3C4CC(F)C/5=C/C(=O)/C=C\C5(C)C4C(O)CC3(C)[C@@]2(O1)C(=O)CO (stereo partly drawn)	110	117	114	115	107	94.9	78	73.8	71.6	72.5	70.7	115	119	117	102	94.4	76.6	61.4	52.1	50.8	45.9	49											
